Experiments:
[1] = system: hearts of phenobarbital anaesthetized rats (myocardial tissue); assay: Infarct size after 60 minutes coronary artery occlusion and 180 minutes of reperfusion in anaesthetized rats; format: in vivo, rat; settings: normothermia (36.5-37.5° C.), 3.3 mg/kg bodyweight i.v. bolus in 10 minutes, 25 minutes prior to CAO, 60 min CAO, 180 min reperfusion, mean ± standard error margin, n=6, P<0.001 vs control (69±2%)
Procedure: Area at risk (AR) and infarcted area (IA) were determined in hearts of phenobarbital anaesthetized rats after 60 minutes coronary artery occlusion (CAO) and 180 minutes of reperfusion. […] The mean AR expressed as percentage of the left yentricle was not different between the control and the experimental group (42±2% and 42±3%, respectively).

[2] = system: deep burn wounds (skin/dermis structures); assay: Deep burn wound model in the Yorkshire pig; format: in vivo, Yorkshire White; settings: administered intravenously in a single dose
Excerpt: The Yorkshire pig has been chosen as the experimental animal because of all animal species this domestic pig seems to be the one with morphological and functional skin characteristics nearest to human skin and so best fulfils the requirements of a model for human skin. In basic architecture it resembles human skin in the relative thickness of the epidermis and dermis, the presence of epidermal ridges, a distinct dermal papillary layer and a deep layer of subdermal fat. Compared to human the elastic fibre content of porcine dermis is relatively low, but higher than in any other species. […] Studies on the proliferation rate of porcine epidermis show parallels with those of humans. The keratinous proteins are similar. Unlike the skin of rodents, the follicular pattern in pigs and humans is relatively sparse and arranged as single hairs or in groups of two or three follicles. […] The regulation of body temperature by the skin is more evident in humans than in the pig. In the skin of the pig no eccrine glands are found. It does have apocrine glands, but their role in thermoregulation remains debatable. The vascular anatomy of pig skin consists of a three layered network; lower, mid-dermal and sub epidermal. The size, orientation and distribution of the vessels are strikingly similar to human skin, but it does differ from humans in that the sub epidermal network is less dense. The vascularisation of the lower region of the follicle corresponds to that in humans. The healing of deep dermal burns, which depends on this phenomenon, might also be analogous. Studies on the thermal properties of porcine skin as a function of depth have been performed by measuring the tissue water content.
Protocol 1a: Twelve identical deep burn wounds were inflicted in each animal. The animal model used is developed in the Burn Research Institute (Beverwijk, The Netherlands) and is a standard for all of the experimental burn wound research. The model is also accepted by the animal experimental commission of the University of Amsterdam. […]

Cc1occc(=O)c1[O-].Cc1occc(=O)c1[O-].[O]=[V+2] [bis(maltolato)oxovanadium(IV)]
IA/AR ratio (infarcted area / area at risk) [1]: 45±3%
contractions of scars [2]: considerably reduced
healing of burn wounds [2]: faster healing
structures present in the dermis (deep vascular plexus, hair-adnexes (sebaceous glands), sweat glands) [2]: protected
